Data from patent publication USRE44733E1, “6-mercapto-cyclodextrin derivatives:reversal agents for drug-induced neuromuscular block” (Merck Sharp & Dohme B.V., priority 1999, dated 2014).

Tested on: neuromuscular block, induced by the muscle relaxant rocuronium bromide (Roc)
Assay: Reversal of neuromuscular blockade in anaesthetized guinea pigs in vivo
Conditions: for concentration at maximum reversal (at conc.) / % max reversal: anaesthetized guinea pigs, rocuronium bromide steady-state block; for concentration at maximum reversal (at conc.): dose of reversal agent at which % max reversal was seen; for % max reversal: maximum reversal; for ED50: dose producing 50% reversal of steady-state neuromuscular block: anaesthetized male Dunkin-Hartley guinea pigs, steady-state block of 85-90% by continuous rocuronium bromide infusion, reversal agent given by jugular vein catheter, M. gastrocnemius contractions
Experimental: Reversal of Neuromuscular Blockade in Anaesthetized Guinea Pigs in vivo
Male Dunkin-Hartley guinea pigs (bodyweight: 600-900 g) were anaesthetized by i.p. administration of 10 mg/kg pentobarbitone and 1000 mg/kg urethane. After tracheotomy, the animals were artificially ventilated using a Harvard small animal ventilator. A catheter was placed into the carotid artery for continuous monitoring of arterial blood pressure and the taking of blood samples for blood gas analysis. Heart rate was derived from the blood pressure signal. The sciatic nerve was stimulated (rectangular pulses of 0.5 ms duration at 10 s (0.1 Hz) intervals at a supramaximal voltage, using a Grass S88 Stimulator) and the force of M. gastrocnemius contractions was measured using a Grass FT03 force-displacement transducer. Contractions, blood pressure and heart rate were recorded on a multichannel Grass 7D recorder. Catheters were placed in both jugular veins. One catheter was used for the continuous infusion of a neuromuscular blocking agent. The infusion rate of the neuromuscular blocking agent was increased until a steady-state block of 85-90% was obtained. The other catheter was used for administration of increasing doses of the reversal agent. During continuous infusion of the neuromuscular blocking agent, single doses of increasing concentration of reversal agent were given. At the end of the experiment, the measured force of muscle contractions was plotted against the concentration of reversal agent, and using regression analysis techniques, the 50% reversal concentration was calculated. Results for the reversal of the neuromuscular block, induced by the muscle relaxant rocuronium bromide (Roc), by the 6-mercapto-cyclodextrin derivatives of Examples 1-19 are presented in Table I. For comparison, the reversal activity of the parent compounds β-cyclodextrin and γ-cyclodextrin are included as well.

Row | Compound | concentration at maximum reversal (at conc.) | % max reversal | ED50: dose producing 50% reversal of steady-state neuromuscular block
1 | O=C([O-])c1ccc(SCC2OC3OC4C(CO)OC(OC5C(CO)OC(OC6C(CO)OC(OC7C(CO)OC(OC8C(CO)OC(OC9C(CO)OC(OC%10C(CO)OC(OC2C(O)C3O)C(O)C%10O)C(O)C9O)C(O)C8O)C(O)C7O)C(O)C6O)C(O)C5O)C(O)C4O)cc1.[Na+] (stereo not drawn) [example 1, 6-mono-Deoxy-6-mono-(4-carboxyphenyl)thio-γ-cyclodextrin, Sodium Salt] | (8.0) μmol · kg^−1 | 102% | 0.94 µmol/kg
2 | O=C([O-])c1ccccc1SC[C@H]1O[C@@H]2O[C@H]3[C@H](O)[C@@H](O)[C@@H](O[C@H]4[C@H](O)[C@@H](O)[C@@H](O[C@H]5[C@H](O)[C@@H](O)[C@@H](O[C@H]6[C@H](O)[C@@H](O)[C@@H](O[C@H]7[C@H](O)[C@@H](O)[C@@H](O[C@H]8[C@H](O)[C@@H](O)[C@@H](O[C@H]9[C@H](O)[C@@H](O)[C@@H](O[C@H]1[C@H](O)[C@H]2O)O[C@@H]9CO)O[C@@H]8CO)O[C@@H]7CO)O[C@@H]6CO)O[C@@H]5CO)O[C@@H]4CO)O[C@@H]3CO.[Na+] [example 2, 6mono-Deoxy-6-mono-(2-carboxyphenyl)thio-γ-cyclodextin, Sodium Salt] | (11) μmol · kg^−1 | 93% | 1.30 µmol/kg
3 | O=C([O-])c1cccc(SCC2OC3OC4C(CSc5cccc(C(=O)[O-])c5)OC(OC5C(CSc6cccc(C(=O)[O-])c6)OC(OC6C(CSc7cccc(C(=O)[O-])c7)OC(OC7C(CSc8cccc(C(=O)[O-])c8)OC(OC8C(CSc9cccc(C(=O)[O-])c9)OC(OC9C(CSc%10cccc(C(=O)[O-])c%10)OC(OC%10C(CSc%11cccc(C(=O)[O-])c%11)OC(OC2C(O)C3O)C(O)C%10O)C(O)C9O)C(O)C8O)C(O)C7O)C(O)C6O)C(O)C5O)C(O)C4O)c1.[Na+].[Na+].[Na+].[Na+].[Na+].[Na+].[Na+].[Na+] (stereo not drawn) [example 3, 6-Per-deoxy-6-per-(3-carboxyphenyl)thio-γ-cyclodextrin, Sodium Salt] | (1.28) μmol · kg^−1 | 102% | 0.28 µmol/kg
4 | O=C([O-])CCSC[C@H]1O[C@@H]2O[C@H]3[C@H](O)[C@@H](O)[C@@H](O[C@H]4[C@H](O)[C@@H](O)[C@@H](O[C@H]5[C@H](O)[C@@H](O)[C@@H](O[C@H]6[C@H](O)[C@@H](O)[C@@H](O[C@H]7[C@H](O)[C@@H](O)[C@@H](O[C@H]8[C@H](O)[C@@H](O)[C@@H](O[C@H]9[C@H](O)[C@@H](O)[C@@H](O[C@H]1[C@H](O)[C@H]2O)O[C@@H]9CSCCC(=O)[O-])O[C@@H]8CSCCC(=O)[O-])O[C@@H]7CSCCC(=O)[O-])O[C@@H]6CSCCC(=O)[O-])O[C@@H]5CSCCC(=O)[O-])O[C@@H]4CSCCC(=O)[O-])O[C@@H]3CSCCC(=O)[O-].[Na+].[Na+].[Na+].[Na+].[Na+].[Na+].[Na+].[Na+] [example 4, 6-Per-deoxy-6-per-(2-carboxyethyl)thio-γ-cyclodextrin, Sodium Salt] | (0.53) μmol · kg^−1 | 97% | 0.09 µmol/kg
5 | O=C([O-])CCCCCSC[C@H]1O[C@@H]2O[C@H]3[C@H](O)[C@@H](O)[C@@H](O[C@H]4[C@H](O)[C@@H](O)[C@@H](O[C@H]5[C@H](O)[C@@H](O)[C@@H](O[C@H]6[C@H](O)[C@@H](O)[C@@H](O[C@H]7[C@H](O)[C@@H](O)[C@@H](O[C@H]8[C@H](O)[C@@H](O)[C@@H](O[C@H]9[C@H](O)[C@@H](O)[C@@H](O[C@H]1[C@H](O)[C@H]2O)O[C@@H]9CSCCCCCC(=O)[O-])O[C@@H]8CSCCCCCC(=O)[O-])O[C@@H]7CSCCCCCC(=O)[O-])O[C@@H]6CSCCCCCC(=O)[O-])O[C@@H]5CSCCCCCC(=O)[O-])O[C@@H]4CSCCCCCC(=O)[O-])O[C@@H]3CSCCCCCC(=O)[O-].[Na+].[Na+].[Na+].[Na+].[Na+].[Na+].[Na+].[Na+] [example 5, 6-Per-deoxy-6-per-(5-carboxypentyl)thio-γ-cyclodextrin, Sodium Salt] | (2.5) μmol · kg^−1 | 78% | 0.74 µmol/kg
6 | O=C([O-])CCCSC[C@H]1O[C@@H]2O[C@H]3[C@H](O)[C@@H](O)[C@@H](O[C@H]4[C@H](O)[C@@H](O)[C@@H](O[C@H]5[C@H](O)[C@@H](O)[C@@H](O[C@H]6[C@H](O)[C@@H](O)[C@@H](O[C@H]7[C@H](O)[C@@H](O)[C@@H](O[C@H]8[C@H](O)[C@@H](O)[C@@H](O[C@H]9[C@H](O)[C@@H](O)[C@@H](O[C@H]1[C@H](O)[C@H]2O)O[C@@H]9CSCCCC(=O)[O-])O[C@@H]8CSCCCC(=O)[O-])O[C@@H]7CSCCCC(=O)[O-])O[C@@H]6CSCCCC(=O)[O-])O[C@@H]5CSCCCC(=O)[O-])O[C@@H]4CSCCCC(=O)[O-])O[C@@H]3CSCCCC(=O)[O-].[Na+].[Na+].[Na+].[Na+].[Na+].[Na+].[Na+].[Na+] [example 6, 6-Per-deoxy-6-per-(3carboxypropyl)thio-γ-cyclodextrin, Sodium Salt] | (0.48) μmol · kg^−1 | 108% | 0.09 µmol/kg
7 | O=C([O-])CSC[C@H]1O[C@@H]2O[C@H]3[C@H](O)[C@@H](O)[C@@H](O[C@H]4[C@H](O)[C@@H](O)[C@@H](O[C@H]5[C@H](O)[C@@H](O)[C@@H](O[C@H]6[C@H](O)[C@@H](O)[C@@H](O[C@H]7[C@H](O)[C@@H](O)[C@@H](O[C@H]8[C@H](O)[C@@H](O)[C@@H](O[C@H]9[C@H](O)[C@@H](O)[C@@H](O[C@H]1[C@H](O)[C@H]2O)O[C@@H]9CSCC(=O)[O-])O[C@@H]8CSCC(=O)[O-])O[C@@H]7CSCC(=O)[O-])O[C@@H]6CSCC(=O)[O-])O[C@@H]5CSCC(=O)[O-])O[C@@H]4CSCC(=O)[O-])O[C@@H]3CSCC(=O)[O-].[Na+].[Na+].[Na+].[Na+].[Na+].[Na+].[Na+].[Na+] [example 7, 6-Per-deoxy-6-per-carboxymethylthio-γ-cyclodextrin, Sodium Salt] | (1.92) μmol · kg^−1 | 88% | 0.21 µmol/kg
8 | O=C([O-])c1ccc(SC[C@H]2O[C@@H]3O[C@H]4[C@H](O)[C@@H](O)[C@@H](O[C@H]5[C@H](O)[C@@H](O)[C@@H](O[C@H]6[C@H](O)[C@@H](O)[C@@H](O[C@H]7[C@H](O)[C@@H](O)[C@@H](O[C@H]8[C@H](O)[C@@H](O)[C@@H](O[C@H]9[C@H](O)[C@@H](O)[C@@H](O[C@H]%10[C@H](O)[C@@H](O)[C@@H](O[C@H]2[C@H](O)[C@H]3O)O[C@@H]%10CSc2ccc(C(=O)[O-])cc2)O[C@@H]9CSc2ccc(C(=O)[O-])cc2)O[C@@H]8CSc2ccc(C(=O)[O-])cc2)O[C@@H]7CSc2ccc(C(=O)[O-])cc2)O[C@@H]6CSc2ccc(C(=O)[O-])cc2)O[C@@H]5CSc2ccc(C(=O)[O-])cc2)O[C@@H]4CSc2ccc(C(=O)[O-])cc2)cc1.[Na+].[Na+].[Na+].[Na+].[Na+].[Na+].[Na+].[Na+] [example 8, 6-Per-deoxy-6-per-(4-carboxyphenyl)thio-γ-cyclodextrin, Sodium Salt] | (0.48) μmol · kg^−1 | 95% | 0.10 µmol/kg
9 | O=C([O-])Cc1ccc(SC[C@H]2O[C@@H]3O[C@H]4[C@H](O)[C@@H](O)[C@@H](O[C@H]5[C@H](O)[C@@H](O)[C@@H](O[C@H]6[C@H](O)[C@@H](O)[C@@H](O[C@H]7[C@H](O)[C@@H](O)[C@@H](O[C@H]8[C@H](O)[C@@H](O)[C@@H](O[C@H]9[C@H](O)[C@@H](O)[C@@H](O[C@H]%10[C@H](O)[C@@H](O)[C@@H](O[C@H]2[C@H](O)[C@H]3O)O[C@@H]%10CSc2ccc(CC(=O)[O-])cc2)O[C@@H]9CSc2ccc(CC(=O)[O-])cc2)O[C@@H]8CSc2ccc(CC(=O)[O-])cc2)O[C@@H]7CSc2ccc(CC(=O)[O-])cc2)O[C@@H]6CSc2ccc(CC(=O)[O-])cc2)O[C@@H]5CSc2ccc(CC(=O)[O-])cc2)O[C@@H]4CSc2ccc(CC(=O)[O-])cc2)cc1.[Na+].[Na+].[Na+].[Na+].[Na+].[Na+].[Na+].[Na+] [example 9, 6-Per-deoxy-6-per-(4-carboxymethylphenyl)thio-γ-cyclodextrin, Sodium Salt] | (0.50) μmol · kg^−1 | 100% | 0.13 µmol/kg
10 | NC(=O)CCCSCC1OC2OC3C(CSCCCC(N)=O)OC(OC4C(CSCCCC(N)=O)OC(OC5C(CSCCCC(N)=O)OC(OC6C(CSCCCC(N)=O)OC(OC7C(CSCCCC(N)=O)OC(OC8C(CSCCCC(N)=O)OC(OC9C(CSCCCC(N)=O)OC(OC1C(O)C2O)C(O)C9O)C(O)C8O)C(O)C7O)C(O)C6O)C(O)C5O)C(O)C4O)C(O)C3O (stereo not drawn) [example 10, 6-Per-deoxy-6-per(3-amidopropyl)thio-γ-cyclodextrin] | (33) μmol · kg^−1 | 94% | 0.57 µmol/kg
